Test results published in the supplement of paper PMC10307832.

Compound: COc1cc(Nc2ncc(F)c(Nc3ccc4c(n3)NC(=O)C(C)(C)O4)n2)cc(OC)c1OC [R406] + O=C(c1cc(Cc2n[nH]c(=O)c3ccccc23)ccc1F)N1CCN(C(=O)C2CC2)CC1 [Olaparib] (partner 8 µM)
Assay: relative viability (nuclei count vs DMSO), 5 days (fraction); higher = more cells survive
Conditions: first compound 0.08 µM
Procedure, shortened: (§1)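 Relative viability divides the nuclei count in treated wells by that in vehicle wells. Lung cancer cell lines were seeded in 1536-well plates, dosed by pin tool the next day, and fixed and stained after 5 days in one step with final 0.05% Triton X-100, 1% formaldehyde and 1 ug/ml Hoechst. Dosing was a single drug or a fixed anchor-drug dose plus five library-drug doses (not always all listed) in √10 steps, and values are medians of duplicate plates imaged at 4×.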

Cell Line	relative viability
LXF-289	1.08
NCI-H23	0.277
NCI-H650	0.342
NCI-H1651	0.19
EPLC-272H	0.8
NCI-H1792	0.456
NCI-H1355	0.675
NCI-H3122	0.637
NCI-H1437	0.611
NCI-H1755	0.801
HCC-15	0.653
PC-3 [JPC-3]	1.15
EKVX	0.928
LC-2-ad	0.728
NCI-H1975	0.706
ABC-1	0.77
NCI-H1944	0.35
RERF-LC-KJ	1.05

Same assay, conditions: first compound 0.253 µM

Cell Line	relative viability
HCC-44	1
LU99A	0.258
BEN	1.24
HARA	0.496
HCC-78	0.896
NCI-H322M	0.695
LCLC-97TM1	0.465
A-427	0.762
NCI-H460	0.577
NCI-H727	0.67
NCI-H1734	0.654
NCI-H2347	0.583
NCI-H1395	0.475
201T	0.867
NCI-H1915	0.267
HCC-827	0.663
LXF-289	1.18

Cell Line	relative viability
NCI-H23	0.271
NCI-H650	0.42
NCI-H1651	0.193
EPLC-272H	0.754
NCI-H1792	0.402
NCI-H1355	0.8
NCI-H3122	0.739
NCI-H1437	0.622
NCI-H1755	0.88
HCC-15	0.839
PC-3 [JPC-3]	1.3
EKVX	0.971
LC-2-ad	0.809
NCI-H1975	0.862
ABC-1	0.805
NCI-H1944	0.382
RERF-LC-KJ	0.947

Same assay, conditions: first compound 0.8 µM

Cell Line	relative viability
HCC-44	0.954
LU99A	0.267
BEN	1.28
HARA	0.705
HCC-78	0.848
NCI-H322M	0.826
LCLC-97TM1	0.534
A-427	0.853
NCI-H460	0.441
NCI-H727	0.666
NCI-H1734	0.688
NCI-H2347	0.604
NCI-H1395	0.444
201T	0.873
NCI-H1915	0.263
HCC-827	0.667
LXF-289	1.12

Cell Line	relative viability
NCI-H23	0.236
NCI-H650	0.435
NCI-H1651	0.177
EPLC-272H	0.707
NCI-H1792	0.491
NCI-H1355	0.82
NCI-H3122	0.69
NCI-H1437	0.647
NCI-H1755	0.869
HCC-15	0.675
PC-3 [JPC-3]	1.13
EKVX	0.995
LC-2-ad	0.694
NCI-H1975	0.783
ABC-1	0.923
NCI-H1944	0.38
RERF-LC-KJ	0.908

Same assay, conditions: first compound 2.53 µM

Cell Line	relative viability
HCC-44	0.989
LU99A	0.218
BEN	1.04
HARA	0.779
HCC-78	0.656
NCI-H322M	0.641
LCLC-97TM1	0.253
A-427	0.682
NCI-H460	0.434
NCI-H727	0.75
NCI-H1734	0.542
NCI-H2347	0.531
NCI-H1395	0.421
201T	0.824
NCI-H1915	0.237
HCC-827	0.522
LXF-289	1.02

Cell Line	relative viability
NCI-H23	0.263
NCI-H650	0.313
NCI-H1651	0.173
EPLC-272H	0.325
NCI-H1792	0.189
NCI-H1355	0.569
NCI-H3122	0.566
NCI-H1437	0.546
NCI-H1755	0.792
HCC-15	0.725
PC-3 [JPC-3]	0.838
EKVX	0.717
LC-2-ad	0.699
NCI-H1975	0.311
ABC-1	0.501
NCI-H1944	0.361
RERF-LC-KJ	0.756

Same assay, conditions: first compound 8 µM

Cell Line	relative viability
HCC-44	1.06
LU99A	0.234
BEN	0.871
HARA	0.17
HCC-78	0.394
NCI-H322M	0.488
LCLC-97TM1	0.179
A-427	0.435
NCI-H460	0.341
NCI-H727	0.663
NCI-H1734	0.417
NCI-H2347	0.47
NCI-H1395	0.362
201T	0.515
NCI-H1915	0.237
HCC-827	0.545
LXF-289	0.219

Cell Line	relative viability
NCI-H23	0.139
NCI-H650	0.301
NCI-H1651	0.172
EPLC-272H	0.112
NCI-H1792	0.194
NCI-H1355	0.374
NCI-H3122	0.625
NCI-H1437	0.431
NCI-H1755	0.502
HCC-15	0.505
PC-3 [JPC-3]	0.452
EKVX	0.655
LC-2-ad	0.45
NCI-H1975	0.204
ABC-1	0.576
NCI-H1944	0.328
RERF-LC-KJ	0.585

Compound: O=C(/C=C/c1cccnc1)NCCCCC1CCN(C(=O)c2ccccc2)CC1 [Daporinad] + NC(=O)Nc1cc(-c2cccc(F)c2)sc1C(=O)N[C@H]1CCCNC1 [AZD7762] (partner 0.2 µM)
Assay: as above
Conditions: first compound 0.0005 µM
Procedure, shortened: as §1

Cell Line	relative viability
HCC-44	1.02
LU99A	0.31
BEN	0.779
HARA	0.232
HCC-78	0.6
NCI-H322M	0.579
LCLC-97TM1	0.209
A-427	0.83
NCI-H460	0.646
NCI-H727	0.757
NCI-H1734	0.546
NCI-H2347	0.785
NCI-H1395	0.386
201T	0.572
NCI-H1915	0.667
HCC-827	0.219
LXF-289	1.01

Cell Line	relative viability
NCI-H23	0.273
NCI-H650	0.931
NCI-H1651	0.486
EPLC-272H	0.19
NCI-H1792	0.55
NCI-H1355	0.768
NCI-H3122	0.978
NCI-H1437	1.12
NCI-H1755	0.429
HCC-15	1.16
PC-3 [JPC-3]	0.734
EKVX	0.586
LC-2-ad	0.762
NCI-H1975	0.61
ABC-1	0.83
NCI-H1944	0.474

Same assay, conditions: first compound 0.001581 µM

Cell Line	relative viability
HCC-44	0.967
LU99A	0.281
BEN	0.661
HARA	0.522
HCC-78	0.626
NCI-H322M	0.592
LCLC-97TM1	0.274
A-427	0.765
NCI-H460	0.587
NCI-H727	0.466
NCI-H1734	0.521
NCI-H2347	0.814
NCI-H1395	0.391
201T	0.673
NCI-H1915	0.742
HCC-827	0.23
LXF-289	1.14

Cell Line	relative viability
NCI-H23	0.181
NCI-H650	0.775
NCI-H1651	0.475
EPLC-272H	0.271
NCI-H1792	0.702
NCI-H1355	0.799
NCI-H3122	1.05
NCI-H1437	1.16
NCI-H1755	0.43
HCC-15	1.33
PC-3 [JPC-3]	0.829
EKVX	0.676
LC-2-ad	0.88
NCI-H1975	0.752
ABC-1	0.798
NCI-H1944	0.453
RERF-LC-KJ	1.2

Same assay, conditions: first compound 0.005 µM

Cell Line	relative viability
HCC-44	0.994
LU99A	0.377
BEN	0.812
HARA	0.299
HCC-78	0.53
NCI-H322M	0.54
LCLC-97TM1	0.238
A-427	0.759
NCI-H460	0.64
NCI-H727	0.513
NCI-H1734	0.51
NCI-H2347	0.726
NCI-H1395	0.441
201T	0.671
NCI-H1915	0.716
HCC-827	0.263
LXF-289	1.19

Cell Line	relative viability
NCI-H23	0.274
NCI-H650	1.32
NCI-H1651	0.554
EPLC-272H	0.268
NCI-H1792	0.756
NCI-H1355	0.869
NCI-H3122	1.09
NCI-H1437	1.14
NCI-H1755	0.462
HCC-15	1.26
PC-3 [JPC-3]	0.9
EKVX	0.933
LC-2-ad	0.79
NCI-H1975	0.729
ABC-1	0.823
NCI-H1944	0.6
RERF-LC-KJ	1.14

Same assay, conditions: first compound 0.01581 µM

Cell Line	relative viability
HCC-44	1.03
LU99A	0.307
BEN	0.824
HARA	0.16
HCC-78	0.796
NCI-H322M	0.456
LCLC-97TM1	0.195
A-427	0.529
NCI-H460	0.629
NCI-H727	0.439
NCI-H1734	0.328
NCI-H2347	0.547
NCI-H1395	0.384
201T	0.535
NCI-H1915	0.71
HCC-827	0.287
LXF-289	1.19

Cell Line	relative viability
NCI-H23	0.203
NCI-H650	1.06
NCI-H1651	0.477
EPLC-272H	0.297
NCI-H1792	0.955
NCI-H1355	0.675
NCI-H3122	0.825
NCI-H1437	1.09
NCI-H1755	0.5
HCC-15	1.15
PC-3 [JPC-3]	0.836
EKVX	0.705
LC-2-ad	0.964
NCI-H1975	0.747
ABC-1	1.1
NCI-H1944	0.579
RERF-LC-KJ	1.11
